Results on five molecules are retold here after patent US11198713B2, “Agents modulating beta-catenin functions and methods thereof” (FOG PHARMACEUTICALS, INC., priority 2017, dated 2021).

pEC50, pKd: −log10 of the molar value. Like-named read-outs stand apart in the source and are kept apart here. A value given as a limit tells only on which side of the number the result lay.

For assay [1], the target named is T1, biotinylated beta-catenin (Homo sapiens, UniProt P35222).
T1 sequence (P35222 1-781): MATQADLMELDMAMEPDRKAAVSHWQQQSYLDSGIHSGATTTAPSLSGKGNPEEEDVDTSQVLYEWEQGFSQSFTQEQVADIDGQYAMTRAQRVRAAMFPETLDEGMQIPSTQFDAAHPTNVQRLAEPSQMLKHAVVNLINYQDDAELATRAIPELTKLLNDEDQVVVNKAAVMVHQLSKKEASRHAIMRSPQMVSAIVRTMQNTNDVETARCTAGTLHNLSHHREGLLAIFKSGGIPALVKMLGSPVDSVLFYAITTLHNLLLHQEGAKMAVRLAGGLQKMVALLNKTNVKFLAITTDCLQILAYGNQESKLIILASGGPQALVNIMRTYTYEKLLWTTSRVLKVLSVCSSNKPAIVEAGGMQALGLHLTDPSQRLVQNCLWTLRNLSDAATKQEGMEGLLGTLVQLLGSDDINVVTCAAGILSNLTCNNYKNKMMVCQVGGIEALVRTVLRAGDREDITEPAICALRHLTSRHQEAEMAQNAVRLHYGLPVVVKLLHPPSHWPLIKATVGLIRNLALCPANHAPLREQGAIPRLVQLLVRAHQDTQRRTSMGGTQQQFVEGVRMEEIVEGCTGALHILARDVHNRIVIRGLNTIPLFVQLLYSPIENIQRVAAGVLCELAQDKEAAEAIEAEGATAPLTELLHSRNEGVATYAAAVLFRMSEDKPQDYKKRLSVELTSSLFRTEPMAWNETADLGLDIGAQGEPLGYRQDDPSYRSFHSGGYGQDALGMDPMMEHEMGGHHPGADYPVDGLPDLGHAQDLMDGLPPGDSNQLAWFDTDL
The assay is described as follows: Surface Plasmon Resonance (Biacore). The assay is classed as binding. Here is the method: Additionally or alternatively, binding to beta-catenin may be measured by Surface Plasmon Resonance. In an exemplary assay, approximately 6 nmol dried peptide diluted in buffer (50 mM Tris pH 8.0, 300 mM NaCl, 2% glycerol, 0.5 mM TCEP, 0.5 mM EDTA, 0.005% Tween-20, 1 mg/mL CM Dextran, 0.02% w/v sodium azide) was assayed on a Biacore X100 using the Biacore Biotin CAPture Kit (GE Healthcare) and biotinylated beta-catenin. Results were analyzed using the Biacore X100 Evaluation Software. […] FPO217c (Isomer 2) bound to the armadillo domain of β-catenin with a Kd of 2 nM.

The target of assay [2] is T2, full-length beta-catenin (Axin site) (Homo sapiens, UniProt P35222).
T2 construct: 15 nM full-length beta-catenin, 20 nM FITC labeled peptide in buffer
T2 sequence (P35222 1-781): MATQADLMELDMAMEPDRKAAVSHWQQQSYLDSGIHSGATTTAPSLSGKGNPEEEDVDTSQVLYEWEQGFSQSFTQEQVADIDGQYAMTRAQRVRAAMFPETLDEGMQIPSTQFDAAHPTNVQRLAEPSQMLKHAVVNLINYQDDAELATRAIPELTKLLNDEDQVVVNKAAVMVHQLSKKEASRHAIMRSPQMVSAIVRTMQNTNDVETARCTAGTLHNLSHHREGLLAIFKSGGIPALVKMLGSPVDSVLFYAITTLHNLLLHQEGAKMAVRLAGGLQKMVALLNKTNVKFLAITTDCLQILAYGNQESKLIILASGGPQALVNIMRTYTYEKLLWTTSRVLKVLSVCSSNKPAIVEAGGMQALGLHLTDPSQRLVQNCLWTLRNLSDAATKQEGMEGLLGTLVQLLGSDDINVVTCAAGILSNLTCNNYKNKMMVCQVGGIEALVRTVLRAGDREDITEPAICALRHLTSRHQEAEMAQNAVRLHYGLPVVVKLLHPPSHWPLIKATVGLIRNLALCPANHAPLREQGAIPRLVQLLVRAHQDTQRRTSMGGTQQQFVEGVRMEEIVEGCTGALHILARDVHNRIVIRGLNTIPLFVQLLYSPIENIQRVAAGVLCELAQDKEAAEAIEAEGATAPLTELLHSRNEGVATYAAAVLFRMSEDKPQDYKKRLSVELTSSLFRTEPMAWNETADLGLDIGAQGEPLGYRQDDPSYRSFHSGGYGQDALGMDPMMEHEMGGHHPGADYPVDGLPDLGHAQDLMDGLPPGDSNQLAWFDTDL
The assay is described as follows: Competition fluorescence polarization assay (Axin site probe). The format is binding. Conditions: competition fluorescence polarization, Table 2; read-out: in vitro FP EC50. The essentials: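 Competition FP: 15 nM full-length β-catenin pre-incubated 5 min with 20 nM FITC-labelled stapled Axin-site peptide, then titrated peptide added (3-fold series from 5 μM) for 15 min in the dark. Buffer 50 mM Tris pH 8.0, 250 mM NaCl, 2% glycerol, 0.5 mM EDTA; duplicate reads.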
A general note: Polarisation of emitted light reports the rotation of a fluorescent probe.

Where [3] appears, read: Biacore, biotinylated beta-catenin, read-out: Kd.

Broadly, the pKd is the negative decadic logarithm of the Kd, by convention in mol/L. A word on the pEC50: it is the EC50 on a negative log10 scale, so that one unit is a factor of ten.

Turning to `CC[C@H](C)[C@@H]1NC(=O)C2(NC(=O)[C@H](CCC(N)=O)NC(=O)[C@@H]3CCCN3C(C)=O)CN(C2)C(=O)OCC=CCCCC[C@](C)(C(=O)N[C@@H](Cc2c[nH]cn2)C(=O)N[C@H](C(=O)N[C@@H](CCCNC(=N)N)C(=O)N[C@@H](CCCNC(=N)N)C(=O)N[C@H](C(=O)N[C@@H](Cc2c[nH]c3ccccc23)C(=O)N[C@@H](CCCNC(=N)N)C(N)=O)C(C)C)C(C)C)NC(=O)[C@H](CC(=O)O)NC(=O)[C@H](CC(C)C)NC1=O` (single isomer, unassigned) [FP0725c, Ac-P-Q-MA-I-L-D-R6-H-V-R-R-V-W-R-NH2], in assay [1] (Table 2, read-out: Kd by SPR), the negative logarithm of the Kd (pKd) was 7.66. For the same molecule, the pEC50 in assay [2] is more than 7.00. Taken in the same sequence, the figures for `CC[C@H](C)[C@@H]1NC(=O)[C@@](C)(NC(=O)[C@H](CCC(N)=O)NC(=O)[C@@H]2CCCN2C(C)=O)CCCCCC=CCN2CC(C(=O)N[C@@H](Cc3c[nH]cn3)C(=O)N[C@H](C(=O)N[C@@H](CCCNC(=N)N)C(=O)N[C@@H](CCCNC(=N)N)C(=O)N[C@H](C(=O)N[C@@H](Cc3c[nH]c4ccccc34)C(=O)N[C@@H](CCCNC(=N)N)C(N)=O)C(C)C)C(C)C)(C2)NC(=O)[C@H](CC(=O)O)NC(=O)[C@H](CC(C)C)NC1=O` (single isomer, unassigned) [FP0738a, Ac-P-Q-S7-I-L-D-MA-H-V-R-R-V-W-R-NH2] were 7.37 and 6.30 to 7.00. Taken in the same sequence, the figures for `CC[C@H](C)[C@@H]1NC(=O)[C@@]2(NC(=O)[C@H](CCC(N)=O)NC(=O)[C@@H]3CCCN3C(C)=O)CCN(CC=CCCCC[C@](C)(C(=O)N[C@@H](Cc3c[nH]cn3)C(=O)N[C@H](C(=O)N[C@@H](CCCNC(=N)N)C(=O)N[C@@H](CCCNC(=N)N)C(=O)N[C@H](C(=O)N[C@@H](Cc3c[nH]c4ccccc34)C(=O)N[C@@H](CCCNC(=N)N)C(N)=O)C(C)C)C(C)C)NC(=O)[C@H](CC(=O)O)NC(=O)[C@H](CC(C)C)NC1=O)C2` (single isomer, unassigned) [FP0745a, Ac-P-Q-MC-I-L-D-R6-H-V-R-R-V-W-R-NH2] were 7.47 and 6.30 to 7.00. On to `CC[C@H](C)[C@@H]1NC(=O)C2(NC(=O)[C@H](CCC(N)=O)NC(=O)[C@@H]3CCCN3C(C)=O)CN(C2)C(=O)OCC=CCCCC[C@](C)(C(=O)N[C@@H](Cc2c[nH]cn2)C(=O)N[C@H](C(=O)N[C@@H](CCCNC(=N)N)C(=O)N[C@@H](CCCNC(=N)N)C(=O)N[C@H](C(=O)N[C@@H](Cc2c[nH]c3ccccc23)C(=O)N[C@@H](CCCNC(=N)N)C(N)=O)C(C)C)C(C)C)NC(=O)[C@H](CC(=O)O)NC(=O)[C@H](CC(C)C)NC1=O` (single isomer, unassigned) [FP-0725c, Ac-P-Q-Az-I-L-D-R6-H-V-R-R-V-W-R-NH2], for which the pKd in assay [1] (setting [3]) was approximately 7.66. For the molecule `CC[C@H](C)[C@@H]1NC(=O)[C@@]2(NC(=O)[C@H](CCC(N)=O)NC(=O)[C@@H]3CCCN3C(C)=O)CCN(CC=CCCCC[C@](C)(C(=O)N[C@@H](Cc3c[nH]cn3)C(=O)N[C@H](C(=O)N[C@@H](CCCNC(=N)N)C(=O)N[C@@H](CCCNC(=N)N)C(=O)N[C@H](C(=O)N[C@@H](Cc3c[nH]c4ccccc34)C(=O)N[C@@H](CCCNC(=N)N)C(N)=O)C(C)C)C(C)C)NC(=O)[C@H](CC(=O)O)NC(=O)[C@H](CC(C)C)NC1=O)C2` (single isomer, unassigned) [FP-0745a], the pKd in assay [1] (setting [3]) was approximately 7.47.
